The target in this experiment is T1, Methionine--tRNA ligase (Trypanosoma brucei brucei (strain 927/4 GUTat10.1), UniProt Q38C91).
T1 sequence (Q38C91 whole entry): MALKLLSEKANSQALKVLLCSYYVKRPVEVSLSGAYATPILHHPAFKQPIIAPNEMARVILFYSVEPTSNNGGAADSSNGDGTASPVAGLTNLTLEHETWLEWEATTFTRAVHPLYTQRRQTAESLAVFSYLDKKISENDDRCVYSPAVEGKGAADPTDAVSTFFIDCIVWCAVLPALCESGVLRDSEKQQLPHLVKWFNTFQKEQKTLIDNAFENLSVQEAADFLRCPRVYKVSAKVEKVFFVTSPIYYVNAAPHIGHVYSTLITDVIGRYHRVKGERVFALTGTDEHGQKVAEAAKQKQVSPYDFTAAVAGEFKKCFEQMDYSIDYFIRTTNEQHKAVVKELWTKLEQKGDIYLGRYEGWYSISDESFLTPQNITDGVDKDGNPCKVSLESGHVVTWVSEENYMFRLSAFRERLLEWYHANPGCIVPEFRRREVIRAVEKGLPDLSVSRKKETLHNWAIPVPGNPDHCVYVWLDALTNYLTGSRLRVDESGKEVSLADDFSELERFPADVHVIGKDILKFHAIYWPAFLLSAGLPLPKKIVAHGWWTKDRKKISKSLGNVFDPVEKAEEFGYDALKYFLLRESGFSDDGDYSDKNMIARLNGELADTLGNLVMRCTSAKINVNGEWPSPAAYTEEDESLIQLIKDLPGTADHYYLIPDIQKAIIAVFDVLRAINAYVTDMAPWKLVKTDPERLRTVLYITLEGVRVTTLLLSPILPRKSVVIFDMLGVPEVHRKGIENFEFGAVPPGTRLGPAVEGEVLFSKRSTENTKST

As a reminder, the IC50 is the concentration that gives 50% inhibition. Higher therefore signals a need for much substance. `Cc1ccc(C(=O)NN2C(=O)/C(=C/c3nc4ccccc4[nH]3)SC2=S)cc1` came in with an IC50 above 119 µM.

For the compound `O=C(NCc1cc(Br)cc(Br)c1OC(=O)c1ccccc1[N+](=O)[O-])c1ccccc1`, the IC50 is above 119 µM. With `COC(=O)C(C=Nc1ccccc1)NC(=O)c1ccc(Cl)cc1Cl` (stereo not drawn) the figure was 2.71 µM. The figure for `N#CC(N=Nc1cc(Cl)cc(Cl)c1)c1nnc2n1CCCCC2` (stereo not drawn) is 16.6 µM; for `Cc1cc2c(c(=O)n1CC1CCCO1)C(c1ccc3c(c1)OCO3)C(C#N)C(=N)O2` (stereo not drawn) it is above 119 µM. Regarding `COC(=O)Cn1c(CC(=O)Nc2ccc(Cl)cc2)c(O)n(-c2ccc(Cl)cc2)c1=S`, the IC50 came to 19.7 µM. The figure for `c1ccc2[nH]c(N=NCc3c[nH]c4ccccc34)nc2c1` [1-(1H-benzimidazol-2-yl)-2-[(Z)-indol-3-ylidenemethyl]diazane] is 32.2 µM. The figure for `Oc1cc(N(CCc2ccccc2)C(=S)Nc2ccccc2)c(O)n1-c1ccc(Br)cc1` [1-[1-(4-bromophenyl)-2,5-bis(oxidanylidene)pyrrolidin-3-yl]-3-phenyl-1-(2-phenylethyl)thiourea] is 0.46 µM; for `N#Cc1ccccc1CSc1ccc(-c2nc3ccccc3[nH]2)cn1` [2-[5-(1H-Benzoimidazol-2-yl)-pyridin-2-ylsulfanylmethyl]-benzonitrile] it is above 119 µM; for `Cc1cc(Br)cc(Br)c1OCC(=O)NNC(=O)Nc1ccccc1` [2-[(2,4-dibromo-6-methylphenoxy)acetyl]-N-phenylhydrazinecarboxamide] it is above 4.39 µM.

`N#Cc1ccccc1CSc1nc2cc(Br)c[nH]c-2n1` [2-[(6-bromo-1H-imidazo[4,5-b]pyridin-2-yl)sulfanylmethyl]benzonitrile] had an IC50 above 119 µM. In the case of `C=C(c1ccc(O)cc1)c1sc(=S)n(CCC(=O)O)c1O` [3-[(5Z)-5-[1-(4-hydroxyphenyl)ethylidene]-4-oxidanylidene-2-sulfanylidene-1,3-thiazolidin-3-yl]propanoic acid], 9.47 µM corresponded to half-maximal inhibition (IC50). The figure for `COc1ccc(NC(=O)COC(=O)CCCOc2ccc(Cl)cc2Cl)cc1` [4-(2,4-dichlorophenoxy)butanoic acid [2-(4-methoxyanilino)-2-oxoethyl] ester] is above 119 µM; for `O=C(Nc1cccnc1)c1ccc(COc2cc(Cl)ccc2Cl)o1` [5-[(2,5-dichlorophenoxy)methyl]-N-(3-pyridinyl)-2-furancarboxamide] it is above 119 µM. With `Fc1ccccc1CSc1nc2ncc(Br)cc2[nH]1` [6-bromanyl-2-[(2-fluorophenyl)methylsulfanyl]-1H-imidazo[4,5-b]pyridine] the figure was above 119 µM; with `COc1ccccc1NS(=O)(=O)c1cc(NC(=O)Nc2ccccc2)ccc1N1CCCCC1` [MLS000401499], above 119 µM; with `O=C(CSc1ccc(-c2nc3ccccc3[nH]2)cn1)Nc1ccc(S(=O)(=O)N2CCCC2)cc1` [MLS000548715], above 119 µM.

Take `Cc1cc(Cl)ccc1OCCCC(=O)NNC(=O)c1ccccc1O` [N'-[4-(4-chloro-2-methylphenoxy)butanoyl]-2-hydroxybenzohydrazide]: the IC50 is above 119 µM. Compound `Cc1[nH]c2ccccc2c1CN=Nc1nc2ccccc2[nH]1` [N-(1H-Benzoimidazol-2-yl)-N'-[1-(2-methyl-1H-indol-3-yl)-meth-(E)-ylidene]-hydrazine] registered an IC50 of 36.9 µM. `Cc1ccc2nc(-c3ccc(SCC(=O)Nc4ccc5c(c4)OCCO5)nc3)[nH]c2c1` [N-(2,3-dihydro-1,4-benzodioxin-6-yl)-2-[[5-(6-methyl-1H-benzimidazol-2-yl)-2-pyridinyl]thio]acetamide] yielded an IC50 above 119 µM. In turn, `COc1cccc(NC(=O)CSC(N)=O)c1` [S-[2-(3-methoxyanilino)-2-oxoethyl] thiocarbamate] gave an IC50 of 1.57 µM. The figure for `O=C(Nc1ccccc1)Nc1ccc(S(=O)(=O)N2CCCCC2)cc1` [SMR000070822] is above 119 µM. With `Oc1cc(SCc2nc3ccccc3[nH]2)c(O)n1-c1cccc(Cl)c1` [SMR000143477] the figure was 2.6 µM; with `COc1cc(CN=Nc2nc3ccccc3[nH]2)ccc1O` [SMR000212232], 102 µM.

Regarding `O=C(Cc1ccc(Br)cc1)NNC(=O)Nc1ccc(Cl)cc1` [SMR000227759], the IC50 was above 119 µM. `O=C(CSc1nc2ccc(Cl)cc2[nH]1)c1c[nH]c2ccccc12` [SMR000261830] came in with an IC50 above 119 µM. With `Clc1cccc(N=NC(Cc2nc3ccccc3[nH]2)c2ccccc2)c1` (stereo not drawn) [SMR000263830] the figure was 3.09 µM.

In turn, `COc1ccc(CC(=O)OCC(=O)Nc2ccc(Br)cc2)cc1` [SMR000353950] registered an IC50 above 119 µM.

The compound `CC(N=Nc1nc2ccccc2[nH]1)c1ccc2c(c1)OCO2` (stereo not drawn) [SMR000354227] came in with an IC50 above 119 µM.

In turn, `COc1cc(OC)c(OC)cc1CN=Nc1nc2ccccc2[nH]1` [SMR000440059] came in with an IC50 above 119 µM. For `Cc1csc(CNc2ncnc3ccc(-c4ccccc4Cl)cc23)c1` [SMR001318042], the IC50 was above 119 µM. For `COc1ccc(NC(=O)Nc2cccc3cccnc23)cc1` [US9034574, XXIV], the IC50 is 2.82 µM. The figure for `O=C(OCC(=O)c1c[nH]c2ccccc12)c1ccc(OC(F)F)cc1` [[2-(1H-indol-3-yl)-2-oxidanylidene-ethyl] 4-[bis(fluoranyl)methoxy]benzoate] is above 119 µM.

Source of the values: BindingDB's records for doi:10.7270/Q2XP73JZ (The Scripps Research Institute Molecular Screening Center, 2013).
